Experimental data taken from publication PMC9118179, “Ginkgolic acid and anacardic acid are reversible inhibitors of SARS-CoV-2 3-chymotrypsin-like protease” (Cell & Bioscience, 2022).

How the values were obtained:
SARS-CoV-2 3CL^pro [1] = molecular target: T1, SARS-CoV-2 3CL^pro (Severe acute respiratory syndrome coronavirus 2, UniProt P0DTD1); experiment: FRET protease assay, Lineweaver-Burk secondary plot; assay type: biochemical
T1 construct: gene rep

SARS-CoV-2 3CL^pro [2] = molecular target: T1, SARS-CoV-2 3CL^pro; experiment: FRET protease assay; assay type: biochemical

Work on `CCCCCCCCCCCCCCCc1cccc(O)c1C(=O)O` [AA, anacardic acid] yielded a Ki (SARS-CoV-2 3CL^pro [1]) of 1.87 µM and an IC50 (SARS-CoV-2 3CL^pro [2]) of 7.6 ± 0.3 µM.
